Results from patent US20100280053A1, “CyclopropylmethYl-[7-(5,7-dimethyl-benzo[1,2,5]thiodiazol-4-yl)-2,5,6-trimethyl-7H-pyrrolo[2,3-d]pyrimidin-4-yl]-4-propyl-amine as a CRF Antagonist” (NOVARTIS AG, priority 2003, published 2010).

Target: T1, human recombinant CRF1 (Homo sapiens, UniProt P34998)
T1 construct: expressed in transfected cells
T1 sequence (P34998 24-415): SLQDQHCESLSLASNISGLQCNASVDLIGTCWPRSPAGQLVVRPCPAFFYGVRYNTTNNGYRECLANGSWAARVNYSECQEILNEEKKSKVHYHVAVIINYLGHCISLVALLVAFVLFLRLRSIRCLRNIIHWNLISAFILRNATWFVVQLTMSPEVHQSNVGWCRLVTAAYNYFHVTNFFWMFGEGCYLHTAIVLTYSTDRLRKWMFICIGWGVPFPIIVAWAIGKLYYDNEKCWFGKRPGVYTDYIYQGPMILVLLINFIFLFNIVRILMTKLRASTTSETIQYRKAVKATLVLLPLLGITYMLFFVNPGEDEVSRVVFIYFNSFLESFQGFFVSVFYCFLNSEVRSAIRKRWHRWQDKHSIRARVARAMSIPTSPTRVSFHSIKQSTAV
Experiment: Inhibition of CRF-stimulated cyclic AMP accumulation in CHO cells expressing human recombinant CRF1
Type: cell-based
Conditions: CRF concentration-response curves in presence of antagonist (1 nM-1 μM)
Experimental: Chinese hamster ovary (CHO) cells expressing human recombinant CRF1 (Chen et al., Proc Natl Acad Sci USA 90, 8967-8971, 1993) are propagated in Dulbecco's modified Eagle medium supplemented with 10% foetal calf serum, non-essential aminoacids, 100 U/ml penicillin, 100 mg/l streptomycin and 1 g/l geneticin (G418). For cyblic AMP determinations, cells are grown to confluence in 24-multiwell plates. Stimulation of cyclic AMP accumulation by CRF (human/rat form) is measured in intact cells, using the [^3H]adenine labelling technique, as described previously (Schoeffter et al., Neuropharmacology 36, 429-437, 1997).
Concentration-response curves for CRF are constructed in the presence of putative antagonists (1 nM-1 μM) or vehicle (dimethyl sulfoxide 1% vol). IC50 values of antagonists are calculated by fitting the percent inhibition of the effect of CRF (10 nM) by increasing concentrations of the antagonists. The fit is done using the nonlinear logistic function of the Origin software package (OriginLab Corporation, Northampton, Mass., USA).

mode of CRF1 receptor antagonism: non-competitive CRF1 receptor antagonist
Compound: CCCN(CC1CC1)c1nc(C)nc2c1c(C)c(C)n2-c1c(C)cc(C)c2nsnc12 [compound of formula A, Cyclopropylmethyl-[7-(5,7-dimethyl-benzo[1,2,5]thiadiazol-4-yl)-2,5,6-trimethyl-7H-pyrrolo[2,3-d]pyrimidin-4-yl]-propyl-amine]
